From patent publication US7351721B2, “Amino acid derivatives and pharmaceutical composition comprising, as active ingredients, them” (Ono Pharmaceutical Co., Ltd., priority 1999, dated 2008)

Biological target: T1, N-type calcium channel (Homo sapiens, UniProt Q00975)
T1 construct: endogenous in cells
Assay: Determination of inhibitory activity on N-type calcium channel (Fura-2 fluorescence, KCl depolarization, with nifedipine)
Format: cell-based
Conditions: compound at final concentration of 3 μM; depolarized with 80 mM potassium chloride; in presence of nifedipine; read-out: Inhibitory effect on calcium flow (%)
Protocol: Determination of Inhibitory Activity on N-type Calcium Channel
Cell line was differentiated according to the method described in FEBS Letters, 235, 178-182, 1988. The cell was loaded with fluorescent reagent, Fura-2·AM (at the final concentration of 10 μM), at 37° C. for 30 minutes and suspended in Krebs-buffer containing HEPES (25 mM) to obtain the cell suspension. The obtained cell suspension was incubated in the presence or absence of the compounds of the present invention with nifedipine for 5 minutes. The cell was depolarized by adding potassium chloride solution (at the final concentration of 80 mM) thereto and then a fluorescence intensity at the emission wavelength of 500 nm excited by the UV of 340 nm and 380 nm alternately was measured using the intracellular calcium analyzer (Nippon Bunko Co., CAF-110). The inhibitory activity of the compound of the present invention (at the final concentration of 3 μM) on calcium influx into the cell was calculated from the difference in changing the fluorescence intensity at peak (ΔR) according to the following equation.

T1 sequence (Q00975 whole entry): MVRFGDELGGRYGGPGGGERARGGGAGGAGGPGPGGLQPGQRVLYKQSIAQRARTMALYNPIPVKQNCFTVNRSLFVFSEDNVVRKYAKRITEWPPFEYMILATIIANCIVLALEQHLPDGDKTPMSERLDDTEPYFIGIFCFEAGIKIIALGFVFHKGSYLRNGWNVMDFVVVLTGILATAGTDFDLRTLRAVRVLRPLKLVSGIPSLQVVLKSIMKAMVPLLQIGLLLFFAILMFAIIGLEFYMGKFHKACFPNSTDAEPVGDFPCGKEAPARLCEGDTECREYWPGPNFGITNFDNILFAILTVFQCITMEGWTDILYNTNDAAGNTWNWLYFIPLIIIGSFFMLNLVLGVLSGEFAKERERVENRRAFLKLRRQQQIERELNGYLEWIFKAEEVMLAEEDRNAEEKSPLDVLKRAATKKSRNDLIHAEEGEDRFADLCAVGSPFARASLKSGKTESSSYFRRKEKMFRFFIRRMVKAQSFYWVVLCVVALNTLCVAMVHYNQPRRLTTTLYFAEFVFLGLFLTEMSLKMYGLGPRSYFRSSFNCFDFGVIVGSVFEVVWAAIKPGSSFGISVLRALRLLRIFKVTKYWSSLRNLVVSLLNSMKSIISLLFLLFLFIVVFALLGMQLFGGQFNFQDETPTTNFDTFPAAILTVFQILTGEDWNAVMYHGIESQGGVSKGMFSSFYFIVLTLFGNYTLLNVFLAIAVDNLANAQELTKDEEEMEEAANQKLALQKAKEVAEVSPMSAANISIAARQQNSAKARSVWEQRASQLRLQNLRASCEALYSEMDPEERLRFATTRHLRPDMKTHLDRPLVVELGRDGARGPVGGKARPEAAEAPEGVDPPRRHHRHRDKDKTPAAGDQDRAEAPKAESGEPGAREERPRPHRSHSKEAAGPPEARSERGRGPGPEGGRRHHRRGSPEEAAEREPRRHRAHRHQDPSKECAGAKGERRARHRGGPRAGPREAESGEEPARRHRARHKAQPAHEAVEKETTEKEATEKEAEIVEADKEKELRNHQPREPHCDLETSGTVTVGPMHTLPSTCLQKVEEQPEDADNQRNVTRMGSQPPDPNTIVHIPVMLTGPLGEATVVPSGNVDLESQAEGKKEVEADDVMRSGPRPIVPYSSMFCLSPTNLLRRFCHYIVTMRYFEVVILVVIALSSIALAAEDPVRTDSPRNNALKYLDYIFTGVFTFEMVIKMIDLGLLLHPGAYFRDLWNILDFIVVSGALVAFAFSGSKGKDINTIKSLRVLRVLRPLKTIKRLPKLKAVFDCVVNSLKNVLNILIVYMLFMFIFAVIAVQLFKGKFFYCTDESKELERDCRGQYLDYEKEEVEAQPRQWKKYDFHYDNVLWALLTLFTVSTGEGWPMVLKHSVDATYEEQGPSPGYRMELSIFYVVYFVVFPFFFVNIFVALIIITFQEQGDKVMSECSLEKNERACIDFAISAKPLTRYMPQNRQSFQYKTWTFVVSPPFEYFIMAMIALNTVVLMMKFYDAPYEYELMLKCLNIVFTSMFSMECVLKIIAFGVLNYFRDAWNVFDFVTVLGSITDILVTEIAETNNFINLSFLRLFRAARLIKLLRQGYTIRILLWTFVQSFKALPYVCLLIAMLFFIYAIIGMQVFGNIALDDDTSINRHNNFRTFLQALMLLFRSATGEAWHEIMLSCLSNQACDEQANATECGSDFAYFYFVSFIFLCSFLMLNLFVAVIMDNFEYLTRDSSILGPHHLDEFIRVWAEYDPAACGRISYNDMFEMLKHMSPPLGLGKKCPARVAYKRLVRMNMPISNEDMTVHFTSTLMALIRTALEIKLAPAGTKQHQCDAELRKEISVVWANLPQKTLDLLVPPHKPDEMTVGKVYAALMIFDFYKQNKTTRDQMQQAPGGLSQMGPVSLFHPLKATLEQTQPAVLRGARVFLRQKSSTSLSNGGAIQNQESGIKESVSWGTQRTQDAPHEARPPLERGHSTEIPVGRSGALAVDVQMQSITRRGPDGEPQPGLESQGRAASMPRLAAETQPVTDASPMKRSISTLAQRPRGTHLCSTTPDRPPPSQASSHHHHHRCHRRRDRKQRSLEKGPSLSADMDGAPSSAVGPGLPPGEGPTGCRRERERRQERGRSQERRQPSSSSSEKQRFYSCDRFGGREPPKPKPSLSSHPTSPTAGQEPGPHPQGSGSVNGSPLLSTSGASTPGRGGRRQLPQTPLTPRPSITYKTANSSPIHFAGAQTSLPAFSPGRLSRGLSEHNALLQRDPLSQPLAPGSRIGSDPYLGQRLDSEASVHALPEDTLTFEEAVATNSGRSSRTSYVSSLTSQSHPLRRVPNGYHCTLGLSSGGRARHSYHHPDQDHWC

`CC(C)(C)OC(=O)N1CSC[C@H]1C(=O)N[C@@H](CSCC1CCCCC1)C(=O)NC1CCN(Cc2ccccc2)CC1` [compound 2, (2R)-N-(1-benzylpiperidin-4-yl)-3-cyclohexylmethylthio-2-((4R)-3-t-butoxycarbonylthiazolidin-4-ylcarbonylamino)propanamide] gave an inhibition at 3 µM of 95%.
